Experimental data: patent US20250108038A1 (priority 2023, published 2025)
“And” between values parts separate entries of the source, which are not always exact repeats. Equal values may be shown once.

Tests used:
OAT3 = target: T1, OAT3 (Homo sapiens, UniProt Q8TCC7); assay: Uptake transporter inhibition assay, OAT3 (estrone-3-sulfate)
T1 sequence (Q8TCC7 1-542): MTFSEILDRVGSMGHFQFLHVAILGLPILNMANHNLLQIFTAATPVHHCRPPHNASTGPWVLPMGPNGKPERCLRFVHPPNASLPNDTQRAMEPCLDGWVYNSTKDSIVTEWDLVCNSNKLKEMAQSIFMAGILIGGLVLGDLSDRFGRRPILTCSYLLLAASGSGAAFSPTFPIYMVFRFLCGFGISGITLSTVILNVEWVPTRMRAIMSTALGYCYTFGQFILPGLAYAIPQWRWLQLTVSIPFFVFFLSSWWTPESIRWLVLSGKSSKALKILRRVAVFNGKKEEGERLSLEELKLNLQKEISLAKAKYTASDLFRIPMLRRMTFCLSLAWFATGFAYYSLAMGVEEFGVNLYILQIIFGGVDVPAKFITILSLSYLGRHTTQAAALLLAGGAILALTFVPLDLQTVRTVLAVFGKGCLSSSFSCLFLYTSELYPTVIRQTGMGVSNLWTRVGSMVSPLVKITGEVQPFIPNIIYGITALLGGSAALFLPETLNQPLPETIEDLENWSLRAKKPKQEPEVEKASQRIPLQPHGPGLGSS
Method: Uptake experiments were performed using HEK293 cells stably expressing the respective uptake transporters. The assays were conducted according to the actual SOLVO uptake transporter assay protocols (PR-ASY-UPT-General Protocol for Uptake Transporter Inhibition Assays).
Cells were cultured at 37° C. in a humidified atmosphere containing 5% CO2 and were plated onto standard 96-well tissue culture plates.
Before the experiment, the medium was removed, and the cells were washed twice with 100 μL of pre-warmed (37° C.) assay buffer listed in Table 15. The cells were pre-incubated at 37° C. for 30 minutes in assay buffer containing the test article at appropriate concentrations (Table 16), appropriate solvents for solvent controls and the reference inhibitor for reference inhibitor wells. After the pre-incubation step solutions were removed. Uptake experiments were performed at 37° C. in 50 μL of assay buffer containing the probe substrate and the test article or solvent and controls.
After the experiment, cells were washed twice with 100 μL of appropriate cold buffer and lysed with 150 μL scintillation cocktail. Radiolabeled probe substrate transport was determined by liquid scintillation counting.
Uptake of the probe substrate in control cells provided background activity values for all data points.

in vivo = settings: for plasma concentration of Compound A: after Compound I-19 single PO 6.645 mg/kg; for plasma concentration of Compound I-19: single IP 4.061 mg/kg
Method: Dose solutions were prepared freshly on each day of studies prior to dosing.
The animals were weighed immediately prior to dosing and the dose volume was calculated individually based the obtained body weight and the nominal dose volume. […] The nominal dose volume was 10 mL/kg in both studies.
Cage side observation was performed before and after dosing as well as at each scheduled sample collection time. The observation included appearance, posture, behavior, morbidity and mortality. Abnormal findings, if any, are required to be recorded in the study record and communicated with study director, veterinarian, and Supernus if necessary.
Approximately 40 μL blood was collected at each scheduled time point from saphenous veins. The actual sample collection time was within 1 min. of the nominal time for collections prior to or at 1 hour, and within 5% of the nominal values for collections post 1 hour.
The blood samples were placed in pre-labeled micro-centrifuge tubes containing K2EDTA as anticoagulant and kept on ice before they were processed to plasma within 30 minutes of collection by centrifugation at 4° C., 3000 g for 5 minutes. The plasma samples were stored at −70±10° C. until LC-MS/MS analysis.
Plasma concentrations below the LLOQ prior to Tmax were set to zero, and those after Tmax were excluded from PK calculation. The nominal dose and the nominal sample collection time were used for the calculation. The values of plasma concentrations and PK parameters are reported to three significant figures. The average values of each treatment group are presented as mean±SD.

[1] = 10.00 μM nominal, 6.60 μM NSB corrected
[2] = 100.00 μM nominal, 77.00 μM NSB corrected
[3] = after Compound I-19 IP 4.061 mg/kg, average
[4] = after Compound I-19 IP 4.061 mg/kg, mean±SD
[5] = after Compound I-19 PO 6.645 mg/kg, mean±SD
[6] = single IP Compound I-19 4.061 mg/kg, male CD-1 mice, individual animals

SMILES: Clc1ccc(C2(OCC3OCCO3)c3ccccc3C3=NCCN32)cc1 (centres unmarked) [Compound I-19]
- Relative inhibition (OAT3; [1]): 5%
- Relative transporter specific accumulation (OAT3; [1]): 95.18 ± 1.71 % of control
- Transporter specific accumulation (OAT3; [1]): 10,323.00 ± 126.84 cpm
- Relative inhibition (OAT3; [2]): 42%
- Relative transporter specific accumulation (OAT3; [2]): 57.83 ± 0.99 % of control
- Transporter specific accumulation (OAT3; [2]): 6,272.33 ± 68.97 cpm
- Maximum % inhibition (OAT3; OAT3, HEK293 cells, E3S (1 μM), NIO: no inhibition observed): 42%
- AUC0-last of Compound I-19 (in vivo; IP 4.061 mg/kg, mean±SD): 482 ± 92.9 ng·h/mL
- Cmax of Compound I-19 (in vivo; IP 4.061 mg/kg, mean±SD): 373 ± 101 ng/mL
- MRT0-last of Compound I-19 (in vivo; IP 4.061 mg/kg, mean±SD): 1.15 ± 0.407 h
- T1/2 of Compound I-19 (in vivo; IP 4.061 mg/kg, mean±SD): 0.631 ± 0.27 h
- Tmax of Compound I-19 (in vivo; IP 4.061 mg/kg, mean±SD): 0.417 ± 0.144 h
- AUC0-last of Compound I-19 (in vivo; PO 6.645 mg/kg, mean±SD): 2.04 ± 2.56 ng·h/mL
- Cmax of Compound I-19 (in vivo; PO 6.645 mg/kg, mean±SD): 4.27 ± 3.1 ng/mL
- MRT0-last of Compound I-19 (in vivo; PO 6.645 mg/kg, mean±SD): 0.365 ± 0.126 h
- Tmax of Compound I-19 (in vivo; PO 6.645 mg/kg, mean±SD): 0.333 ± 0.144 h
- MRT0-last of Compound B (in vivo; [3]): 3.10 h
- T1/2 of Compound B (in vivo; [3]): 3.67 h
- Tmax of Compound B (in vivo; [3]): 2.00 h
- AUC0-last of Compound A (in vivo; [4]): 104 ± 36.7 ng·h/mL
- AUC0-last of Compound B (in vivo; [4]): 120 ± 58.1 ng·h/mL
- Cmax of Compound A (in vivo; [4]): 50.5 ± 20 ng/mL
- Cmax of Compound B (in vivo; [4]): 30.7 ± 5.42 ng/mL
- MRT0-last of Compound A (in vivo; [4]): 1.76 ± 0.454 h
- T1/2 of Compound A (in vivo; [4]): 1.25 ± 0.314 h
- Tmax of Compound A (in vivo; [4]): 0.667 ± 0.289 h
- AUC0-last of Compound A (in vivo; [5]): 203 ± 45.2 ng·h/mL
- Cmax of Compound A (in vivo; [5]): 158 ± 27.2 ng/mL
- MRT0-last of Compound A (in vivo; [5]): 1.19 ± 0.069 h
- T1/2 of Compound A (in vivo; [5]): 0.855 ± 0.173 h
- Tmax of Compound A (in vivo; [5]): 0.333 ± 0.144 h
- plasma concentration of Compound A (in vivo; 0.500 h, mean): 126 ng/mL
- plasma concentration of Compound A (in vivo; 1.00 h, individual mice, 6.645 mg/kg): 123 ng/mL and 54.4 ng/mL and 83.2 ng/mL
- plasma concentration of Compound A (in vivo; 1.00 h, mean): 86.9 ng/mL
- plasma concentration of Compound A (in vivo; 2.00 h, individual mice, 6.645 mg/kg): 44.1 ng/mL and 31.3 ng/mL and 36.7 ng/mL
- plasma concentration of Compound A (in vivo; 2.00 h, mean): 37.4 ng/mL
- plasma concentration of Compound A (in vivo; 4.00 h, individual mice, 6.645 mg/kg): 5.24 ng/mL and 6.75 ng/mL and 8.65 ng/mL
- plasma concentration of Compound A (in vivo; 4.00 h, mean): 6.88 ng/mL
- plasma concentration of Compound A (in vivo; 8.00 h, individual mice): BQL
- plasma concentration of Compound A (in vivo; 24.0 h, individual mice): BQL
- Clinical observation (tolerability) (in vivo; male CD-1 mice, administered dosages (Compound A PO 5.102 mg/kg; Compound I-19 PO 6.645, IP 4.061 mg/kg)): well tolerated
- plasma concentration of Compound I-19 (in vivo; 0.500 h, individual mice, 4.061 mg/kg): 415 ng/mL and 311 ng/mL and 318 ng/mL
- plasma concentration of Compound I-19 (in vivo; 0.500 h, mean): 348 ng/mL
- plasma concentration of Compound I-19 (in vivo; 1.00 h, individual mice, 4.061 mg/kg): 196 ng/mL and 269 ng/mL and 201 ng/mL
- plasma concentration of Compound I-19 (in vivo; 1.00 h, mean): 222 ng/mL
- plasma concentration of Compound I-19 (in vivo; 2.00 h, individual mice, 4.061 mg/kg): 39.7 ng/mL and 100 ng/mL and 71.6 ng/mL
- plasma concentration of Compound I-19 (in vivo; 2.00 h, mean): 70.4 ng/mL
- plasma concentration of Compound I-19 (in vivo; 4.00 h, mean): 13.1 ng/mL
- plasma concentration of Compound I-19 (in vivo; 8.00 h, individual mice): 1.39 ng/mL
- plasma concentration of Compound I-19 (in vivo; 8.00 h, individual mice, 4.061 mg/kg): BQL
- plasma concentration of Compound I-19 (in vivo; 24.0 h, individual mice): BQL
- AUC0-inf of Compound I-19 (in vivo; [6]): 444 ng·h/mL and 589 ng·h/mL and 417 ng·h/mL
- AUC0-last of Compound I-19 (in vivo; [6]): 443 ng·h/mL and 588 ng·h/mL and 414 ng·h/mL
